Assay results published in patent US4968494A, “Methods and compositions for thrombolytic therapy” (Merck & Co., Inc., priority 1990, dated 1990).

Columns and labels:
[1] = biological target: T1, Factor XIIIa (Homo sapiens, UniProt P00488); assay: Factor XIIIa inhibitor assay (incorporation of ^14 C-putrescine into casein catalyzed by Factor XIIIa); assay type: biochemical; details: read-out: Percent Inhibition
T1 construct: from tissue; host or cells: human plasma
T1 sequence (P00488 39-732 limits assumed): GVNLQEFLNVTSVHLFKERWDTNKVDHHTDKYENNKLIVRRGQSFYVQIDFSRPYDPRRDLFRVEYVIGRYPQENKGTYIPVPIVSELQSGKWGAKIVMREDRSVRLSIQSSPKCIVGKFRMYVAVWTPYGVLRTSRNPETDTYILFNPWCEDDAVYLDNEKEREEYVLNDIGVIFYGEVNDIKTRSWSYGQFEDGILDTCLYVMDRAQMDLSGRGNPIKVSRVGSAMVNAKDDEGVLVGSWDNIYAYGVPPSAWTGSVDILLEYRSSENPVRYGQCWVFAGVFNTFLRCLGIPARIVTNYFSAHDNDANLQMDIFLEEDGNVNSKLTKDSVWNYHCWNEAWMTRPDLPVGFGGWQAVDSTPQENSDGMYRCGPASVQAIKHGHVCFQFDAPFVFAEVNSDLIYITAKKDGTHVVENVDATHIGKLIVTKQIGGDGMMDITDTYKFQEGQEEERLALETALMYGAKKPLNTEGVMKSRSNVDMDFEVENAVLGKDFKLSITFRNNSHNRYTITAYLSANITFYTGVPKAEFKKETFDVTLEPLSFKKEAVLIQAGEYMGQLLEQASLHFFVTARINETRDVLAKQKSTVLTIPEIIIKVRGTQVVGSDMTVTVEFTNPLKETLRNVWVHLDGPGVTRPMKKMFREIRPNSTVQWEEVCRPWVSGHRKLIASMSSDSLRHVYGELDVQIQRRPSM
Procedure: The Factor XIIIa inhibitor assay is based on the incorporation of ^14 C-putrescine into casein catalyzed by Factor XIIIa. The assay is carried out employing the procedure described in Methods in Enzymology, Vol. 45, Ch 15., pages 177-191 (1976) and using Factor XIII (F XIII) isolated from human plasma. The procedure is summarized briefly and schematically illustrated as follows: [drawing 16]
Factor XIII assay mixtures are prepared by adding stepwise, appropriate prepared solutions of thrombin and dithiothreitol (DTT) to a mixture comprising Factor XIII in glycerol/water and tris(hydroxymethyl)aminomethane hydrochloride (Tris.cndot.HCl). To a portion of the mixture is added calcium chloride as source of calcium ions required for enzyme activity and to the remaining mixture is added instead of calcium ions ethylenediaminetetracetic acid (EDTA) which serves as a blank for background.
A substrate mixture is prepared from ^14 C-putrescine and […].
The assay tubes and control tubes are charged with the substrate mixture and incubated at 37° C. for 220 minutes. Samples are withdrawn from each tube, spotted onto a filter disk which is then immersed in ice cold trichloroacetic acid solution to precipitate the casein on the filter. The filter is then washed to remove unincorporated or free ^14 C-putrescine and after drying is counted for ^14 C-putrescine incorporated to casein from which percent activity and/or inhibition can be calculated.

[2] = test system: blood clots; assay: in vitro clot lysis assay (TPA-catalyzed lysis of ^125 I-fibrin labelled clot); assay type: biochemical; details: 200 μM cerulenin, buffer pH 7.5
Procedure: In the assay, whole blood or plasma is charged with ^125 I-fibrinogen. Thrombin is added to initiate clot formation and subsequently incubated for 2 hours to complete the cross-linking by endogenous Factor XIII. Factor XIIIa inhibitor is added prior to clot initiation or at various times during the 2-hour incubation. At the end of this period, the labelled clot is washed and lysis is initiated by exogenous tissue plasminogen activator (TPA). Exogenous plasminogen is employed in some experiments. Endogenous plasminogen is used for others. Clot dissolution as a function of time is monitored by the release of solubilized ^125 I-fibrin-derived fragments.
In FIGS. 1 and 2, the open symbols indicate absence of cerulenin and the closed symbols indicate the presence of 200μM cerulenin at the time of clot formation. Clot lysis is conducted in buffer, pH 7.5; 5 ng/mL TPA represents approximate physiologic concentration. 50 to […] represents pharmacologic concentration range. […] FIG. 2 studies employed glu-plasminogen levels at approximately 10 percent physiologic level (12μ/mL)

O=C(O)C=Cc1nc2ccccc2[nH]1 [3-(Benzimidazol-2-yl)-acrylic acid, 3-(benzimidazol-2-yl)acrylic acid]
inhibition at 13 µM ([1]; 1.3 × 10^-5 M): 91%
inhibition at 1.5 µM ([1]; 1.5 × 10^-6 M): 52%
inhibition at 0.17 µM ([1]; 1.7 × 10^-7 M): 9%
inhibition at 4.5 µM ([1]; 4.5 × 10^-6 M): 78%
inhibition at 0.5 µM ([1]; 5 × 10^-7 M): 19%

C/C=C/C/C=C/CCC(=O)[C@H]1O[C@H]1C(N)=O [Cerulenin, (2R,3S)-2,3-epoxy-4-oxo-7E,10E-dodecadienamide]
inhibition at 62 µM ([1]; 6.2 × 10^-5 M): 100%
inhibition at 6.2 µM ([1]; 6.2 × 10^-6 M): 64%
inhibition at 0.62 µM ([1]; 6.2 × 10^-7 M): 22%
lysis rates ([2]; 12 μg/mL exogenous glu-plasminogen, TPA, FIG. 2): lysis rates were further enhanced
rates and extents of lysis ([2]; no exogenous plasminogen, physiological and pharmacological levels of TPA, FIG. 1): enhanced rates and extents of lysis
